Measurements: patent US20100284925A1, “Small Molecule Intervention for Obesity” (priority 2006, published 2010)

Columns and labels:
PLTP promoter = test: PLTP-promoter luciferase reporter in HepG2 and transgenic HepG2/PLTPpLuc cells; assay type: cell-based, human; settings: luciferase reporter, HepG2 or HepG2/PLTPpLuc cells
From the text: FIG. 2A. A 1.5 Kb PLTP promoter fused to a luciferase reporter was transactivated by topotecan dose-dependently.
FIG. 2B. Activation of PLTP promoter by topotecan in HepG2 transgenic cells containing the PLTP-promoter luciferase reporter gene fused to the neomycin selectable marker cassette and stably transfected into HepG2 cells to generate the transgenic line (Top panel). Dose-dependent induction of PLTP promoter by topotecan (Bottom panel). Results are the means S.E. of three experiments after normalization with Renilla luciferase.
FIG. 3A. Dose-dependent transactivation of the PLTP promoter by prieurianin in the HepG2 transgenic cells. Results are the means S.E. of three experiments after normalization with Renilla luciferase.
FIG. 3B. […] 1, Control; 2. […] Results are the means±S.E. of triplicate experiments.
FIG. 11. Transactivation of PLTP promoter by cytotoxic and non-cytotoxic drugs. Survey of transactivation of the PLTP promoter by various cytotoxic and non-cytotoxic drugs in the HepG2 transgenic cells was conducted. Results are the means S.E. of three experiments.
FIG. 12. Effects of trichostatin A (TSA) on transactivation of PLTP promoter by prieurianin. Dose response activation of PLTP promoter by prieurianin either in the presence or the absence of 200 nM TSA. Results are the means S.E. of three experiments.
To determine whether non-cytotoxic small molecules could induce PLTP expression, the inventor herein subcloned the PLTP-promoter luciferase reporter into a vector containing a neomycin (G418)-resistance selectable marker and generated a transgenic HepG2 cell line, which harbors the PLTP-promoter luciferase reporter, by stable gene transfection and selection with G418.
The transgenic cells were then screened with a library of small molecules derived from natural products.

[1] = test system: differentiated NIH-3T3/L1 adipocytes; test: Loss of lipid-positive differentiated adipocytes (oil red O, A510; Nile Red); assay type: cell-based
Procedure: FIG. 8. Prieurianin induced loss of differentiated adipocytes. NIH-3T3/L1 preadipocytes were induced into differentiation. Five days following differentiation, cells were treated with various concentrations (0.5, 1, and 2 μM) of prieurianin for an additional five days and followed by staining with oil red O. Micrographs were obtained from representatives of triplicate experiments. Isopropanol extracts of positively stained cells were quantified spectrophotometrically at 510 nm as shown in histogram on the right. Results are means±S.E. of triplicate experiments.
FIG. 19. Effects of bufalin on preadipocyte differentiation, and dedifferentiation/delipidation in adipo-cytes. NIH-3T3/L1 cells were induced into differentiation and simultaneously treated with either 1 μM of bufalin or 2 μM of prieurianin. Differentiated cells were stained with Nile Red. Alternatively, preadipocytes were induced into differentiation and five days following differentiation, cells were treated with either 1 μM of bufalin or 2 μM of prieurianin for an additional five days and followed by staining with Nile Red. Stained cells were evaluated by fluorescence microscopy.
To assess whether prieurianin has any effect on the differentiated adipocytes, the preadipocytes were allowed to differentiate into adipocytes and then were further cultured for about five days before treating the adipocytes with prieurianin for an additional five to six days, followed by oil red O staining for the presence of lipid accumulating adipocytes.

Compound: C=C1[C@@H]([C@@]2(C)[C@@H](OC(C)=O)CC(=O)O[C@](C)(COC(C)=O)[C@@H]2C(=O)OC)[C@@H](OC=O)[C@H](OC(=O)[C@H](O)[C@H](C)CC)[C@@]2(C)[C@H](c3ccoc3)CC(=O)[C@]12O [prieurianin]
- transactivation of PLTP promoter (PLTP promoter): exhibited the strongest transactivation of the PLTP promoter, and showed induction of PLTP in a dose-dependent manner
- number of lipid positive cells (oil red O stain A510 absorbance) ([1]; 2 μM): almost absent and reduced to a level comparable to the undifferentiated control
- number of oil red O stained cells ([1]; adipocytes treated five days after differentiation, 0.5, 1 and 2 μM): profound dose-dependent reduction in the number of oil red O stained cells
